In US12440472B2, “Stable tryptamine oral films” (INTELGENX CORP., priority 2021, dated 2025):

Legend:
[1] = Stability studies comparing phosphoric acid with citric acid and antioxidants/stabilizers (films stored at 50 C); conditions: compared with film made with only phosphoric acid, 50 C. for two weeks
[2] = administered orally; cited from earlier work

| Compound | degradation products / impurity profile of psilocybin film with stabilizer or acid [1] | drug absorbed into the bloodstream [2] | time of maximum plasma concentration [2] | degradation products / impurity profile of psilocybin film with stabilizer or acid ([1]; listed as copper) |
| --- | --- | --- | --- | --- |
| vitamin E | promoting the degradation |  |  |  |
| CN(C)CCc1c[nH]c2cccc(OP(=O)(O)O)c12 [psilocybin] |  | about 50% | approximately 80 minutes |  |
| [Cl][Cu][Cl] [copper chloride, Copper (II) chloride] | no effect |  |  | promoting the degradation |
| Cc1cc(C(C)(C)C)c(O)c(C(C)(C)C)c1 [BHT] | promoting the degradation |  |  |  |
